{"source": "patent US7972633B2", "about": "“Nutritional supplements for healthy memory and mental function” (Applied Cognitive Sciences, LLC, priority 2007, dated 2011)", "origin": "cited, not measured here", "key": {"[1]": {"system": "patients with mild to moderate transient or permanent impairment of cognitive performance", "settings": "10 or 20 mg three times a day for 16 weeks, compared to placebo"}, "[2]": {"system": "healthy adults who have no evidence of cerebral dysfunction", "settings": "two days' supplementation with 10, 20 or 40 mg daily, compared to placebo"}}, "data": [{"compound": "CCOC(=O)C1=C[C@]2(CC)CCCN3CCc4c(n1c1ccccc41)[C@@H]32", "note": "[vinpocetine, Vinpocetine]", "values": [{"measurement": "concentration, memory and severity of illness", "setting": "[1]", "value": "significant improvements in concentration, memory, and reduced severity of illness"}, {"measurement": "ability to distinguish discrete sensory data, reaction time, short-term memory functions", "setting": "[2]", "value": "significantly greater extent than placebo"}]}]}
